“Also recorded” adds a separate entry of the source.
Key:
[1] = system: NKCC2; assay: NKCC2 activity: 3-hour urine sodium to creatinine ratio after acute IP furosemide challenge at day 10 of Ang II; assay type: in vivo, mice; settings: for urine sodium to creatinine ratio: 3-hour sodium excretion after IP furosemide
Excerpt: (§1) Because IL-1 is secreted by macrophages, macrophage infiltration into the kidneys of the experimental animals was examined. After 4 weeks of hypertension, IL-1R KO kidneys contained more F4/80+ macrophages than WTs (18±1 vs. 14±2 per HPF; p=0.03). […] In turn, the KO group had enhanced renal mRNA expression of the NO-generating enzyme iNOS (1.7±0.3 vs. 1.0±0.2 au; p<0.05) and higher excretion of NO metabolites vs. WTs (152±46 vs. 60±15 nmol/mg Cr; p=0.05). NO inhibits renal sodium (Na) reabsorption, and during the 2″d wk of Ang II infusion when WT and KO BPs separated, only the KOs entered negative Na balance (−16.8±16.8 vs. WT 34.8±7.5 1-Jmol/day, p=0.01). To confirm that preserved NO bioavailability in the Ang 11-infused KOs led to their lower BP vs. WTs, we blocked NO generation in the groups with L-NAME starting on day 7 of Ang II when the WT and KO BPs were 179±3 vs. 165±6 mm Hg (p<0.01). By day 14, BPs converged (186±5 vs. 185±8; p=NS), (FIG. 2.) As NO is known to inhibit the NKCC2 sodium transporter in the kidney, NKCC2 activity at day 10 of Ang II was measured by quantitating urine sodium to creatinine ratios (UNa/UCr) 3 hours after an IP injection of saline with or without furosemide. […] Thus, reduced NKCC2 activity in the IL-1 R KOs protects them from Ang 11-induced sodium retention.
Therefore, to examine NKCC2 activity in the groups at day 10 of Ang II when the differences in sodium excretion was noted, 3-hour sodium excretion was quantitated in response to an acute intraperitoneal (IP) furosemide challenge (FIG. 8). In response to IP saline injection alone, the IL-1RKO mice had exaggerated urine sodium to creatinine ratios, consistent with their enhanced natriuresis in original balance study (237±38 vs. 120±9%; p=0.016). […] Without being bound by a particular theory, it is believed that IL-1 receptor activation stimulates renal sodium reabsorption via NKCC2-mediated sodium transport during Ang II-dependent HTN.

[2] = system: patients with rheumatic diseases; settings: in vivo; cited from earlier work
[3] = system: Ang II-infused mice; assay: Target organ damage (cardiac hypertrophy, albuminuria) in Ang II-induced hypertension; assay type: in vivo; settings: Ang II-infused mice treated with anakinra
Method: For example, the Ang 11-infused IL-1 R KO mice had less cardiac hypertrophy than WJ mice as measured by heart weight/body weight ratios (7.5±0.9 vs. 9.3±0.8 mg/g, p<0.001). Loss of albumin in the urine is a marker for kidney glomerular damage in humans, and Ang 11-infused IL-1 R KO mice had nearly 40% less in albuminuria than Ang 11-infused WT animals (5.90±0.93 vs. 9.38±1.43 mg/mg Cr; p=0.05). […] Thus, the lower blood pressures in IL-1 receptor-deficient mice led to reduced hypertensive damage to the heart and kidney.
Uni-nephrectomized IL-1 R-deficient(IL-1R KO) and wild-type (WT) mice was chronically infused with (1000 ng/kg/min) for 4 weeks using an implanted osmotic mini-pump after measurement of baseline blood pressures. The mice were then treated with vehicle or anakinra (50 mg/kg/day IP) once daily beginning 3 days prior to and continuing throughout the Ang II infusion period (FIG. 3). Blood pressure was monitored continuously using radiotelemetry.
Next, levels of albuminuria, which is a marker for kidney damage, were measured in Ang II-infused IL-1R Kos and wild type mice. It was observed that the levels of albuminuria were reduced by 37% in the IL1R KO mice vs. the wild type: 5899±929 vs. 9380±1423, n=9,10, p=0.052 (37.1% reduction); for 24 hour albuminuria, 3574 vs. 5082, p=0.0810 (30.4% reduction).

[4] = system: wild-type mice in AngII-dependent hypertension model; assay: Ang II-dependent hypertension model, blood pressure by radiotelemetry; assay type: in vivo
Method: To study the role of IL-1 receptor (IL-1 R) activation in hypertension, uni-nephrectomized IL-1 R-deficient(IL-1R KO) and wild-type (WT) mice was chronically infused with angiotensin II (Ang II; 1000 ng/kg/min) for 4 weeks using an implanted osmotic mini-pump after measurement of baseline blood pressures. Chronic angiotensin II infusion in rodents is a widely accepted model of hypertension that leads to the same complications in rodents as those seen in humans including cardiac hypertrophy and kidney damage. Unilateral nephrectomy renders the remaining kidney more susceptible to injury in this hypertension model. In the experiments of the disclosure baseline mean arterial pressures (MAPs) were similar between groups.
In the present disclosure, Anakinra was administered at 50 mg/kg/day IP to wild-type mice in AngII-dependent hypertension model.
FIG. 3B illustrates the effect of treatment with 50 mg/kg/day IP once daily beginning 3 days prior to and continuing throughout the Ang II infusion period.
Uni-nephrectomized IL-1 R-deficient(IL-1R KO) and wild-type (WT) mice was chronically infused with (1000 ng/kg/min) for 4 weeks using an implanted osmotic mini-pump after measurement of baseline blood pressures. […] Blood pressure was monitored continuously using radiotelemetry.

[5] = system: NO generation; assay: Blockade of NO generation with L-NAME in Ang II-infused WT and IL-1R KO mice, blood pressure; assay type: in vivo; settings: L-NAME in drinking water from day 7 of Ang II, by day 14
Excerpt: as §1, with “retention. […]” for “retention.”

NS(=O)(=O)c1cc(C(=O)O)c(NCc2ccco2)cc1Cl [furosemide]
urine sodium to creatinine ratio ([1]; IL-1R KO mice): 481±103% | urine sodium to creatinine ratio ([1]; WT mice): 453±56% | urine sodium to creatinine ratio (UNa/UCr) ([1]; WT mice, 3 hours after IP furosemide): 453±60 mmollmmol

Anakinra: recombinant, nonglycosylated form of the human interleukin-1 receptor antagonist (IL-1Ra) with an added N-terminal methionine, 153 amino acids
hypotension in clinical trials [2]: lack of hypotension | decrease in cardiac hypertrophy ([3]; FIG. 9A): as profound as that seen in the IL-1R KO mice | decrease in albuminuria ([3]; FIG. 9B): as profound as that seen in the IL-1R KO mice | ability to limit blood pressure elevation / protection from hypertension ([4]; 50 mg/kg/day IP once daily, during Ang II infusion (1000 ng/kg/min)): as robust as genetic deletion of the receptor; also recorded: as profound as that seen in the IL-1R KO mice | effect on baseline blood pressure ([4]; 50 mg/kg/day IP, before Ang II infusion (Pre)): no impact; also recorded: no effect

COC(=O)[C@@H](N)CCCNC(=N)N[N+](=O)[O-] [L-NAME, L-Nitroarginine Methyl Ester]
blood pressure following L-NAME treatment ([5]; IL-1R KO mice): 185±8 mm Hg | blood pressure following L-NAME treatment ([5]; WT mice): 186±5 mm Hg

From US20160022772A1, “Cytokine Receptors as Targets for Hypertension Therapy and Methods of Use” (Duke University, priority 2014, published 2016)
